Experiment [1] concerns the target T1, LCRK3 (cdc2-related protein kinase 3) (Leishmania mexicana, UniProt O15851).
T1 construct: gene crk3; recombinant, purified from transgenic L. mexicana promastigotes (homologous expression, gift of K. Grant)
T1 sequence (O15851 1-311): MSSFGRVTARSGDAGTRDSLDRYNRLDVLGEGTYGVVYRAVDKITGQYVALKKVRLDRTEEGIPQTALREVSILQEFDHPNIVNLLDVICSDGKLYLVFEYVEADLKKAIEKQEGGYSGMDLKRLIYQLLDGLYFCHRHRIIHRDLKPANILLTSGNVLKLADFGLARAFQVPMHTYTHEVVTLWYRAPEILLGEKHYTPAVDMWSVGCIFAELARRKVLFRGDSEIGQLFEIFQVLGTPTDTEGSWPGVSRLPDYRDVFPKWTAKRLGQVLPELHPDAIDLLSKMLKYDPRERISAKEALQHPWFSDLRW
Nature of the experiment: luminescent kinase assay (Promega). It counts as biochemical. As to conditions: read-out: L CRK3.

The target of experiment [2] is T2, LGSK-3 (leishmanial Glycogen Synthase Kinase-3 short) (Leishmania donovani, UniProt A6N857).
T2 construct: recombinant, purified from L. donovani over-expressing transfectants (homologous expression); A6N857 is printed for the L. donovani homology model and alignment
T2 sequence (A6N857 1-355): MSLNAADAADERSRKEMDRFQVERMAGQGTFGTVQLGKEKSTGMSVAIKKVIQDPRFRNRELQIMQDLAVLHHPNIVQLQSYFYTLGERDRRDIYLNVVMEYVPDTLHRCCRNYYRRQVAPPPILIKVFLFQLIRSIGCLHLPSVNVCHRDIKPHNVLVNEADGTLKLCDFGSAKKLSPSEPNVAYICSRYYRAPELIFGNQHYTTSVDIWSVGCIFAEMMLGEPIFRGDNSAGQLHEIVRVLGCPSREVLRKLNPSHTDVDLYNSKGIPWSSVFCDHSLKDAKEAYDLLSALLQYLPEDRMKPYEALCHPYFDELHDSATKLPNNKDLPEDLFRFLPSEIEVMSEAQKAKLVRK
Nature of the experiment: luminescent kinase assay (Promega). It counts as biochemical. As to conditions: read-out: L GSK-3.

As for `Cc1cc2c(cc1Br)NC(=O)C2=C1Nc2ccccc2C1=NO` [5-Me-6-BIO, 5-methyl-6-bromoindirubin-3′-oxime], the IC50 in experiment [1] was determined as 650 ± 90 nM; in experiment [2], 90 ± 20 nM.

The record behind these values is article PMC4039064, “An inhibitor-driven study for enhancing the selectivity of indirubin derivatives towards leishmanial Glycogen Synthase Kinase-3 over leishmanial cdc2-related protein kinase 3” (Parasites & Vectors, 2014).
